How the values were obtained:
[1] = target: monoclonal antibody 4G9; assay: Competition ELISA, inhibition of mAb 4G9 binding; set-up: species or system mouse
Experimental: (§1) The ability of monoclonal antibodies, mAb 4G9, mAb BH4 and mAb 2G6, raised against KLH non-enzymatically glycated by prolonged incubation with glucose (KLH-AGE), to recognize the disodium 6-(N-carboxymethylamino)caproate was determined.
(§2) Direct ELISA and competition ELISA. For direct ELISA, 6- (N-carboxymethylamino)caproate was coated on microtiter plates, the unbound sites were blocked by incubation with Assay Buffer (25 mM borate, pH 8.0, 150 mM NaCl, 0.01% EDTA and 1% BSA). The plate was washed six times and increasing concentrations of mAb in Assay Buffer were added. […] The unbound antibodies were removed by extensive washing and the bound antibodies were detected by addition of p-nitrophenylphosphate in recording the optical density at 410 nm.
(§3) The competition ELISA was performed by pre-coating microtiter plates with disodium 6-(N-carboxymethylamino)caproate and blocking with Assay Buffer. […] The unbound materials were removed by extensive washing and the bound mAb was detected with alkaline phosphatase labeled anti-mouse antibodies similar to direct ELISA. […]
(§4) Competitive ELISA: Plates coated with BSA-AGE at 10 μg/ml. […] In the case of isothiocyanate the plates are soaked for 15 minutes with varying concentrations of isothiocyanate and the level of binding then measured.

[2] = tested on: antibodies to advanced glycosylation endproducts; assay: Recognition of compounds by monoclonal antibodies to advanced glycosylation endproducts (direct/competition ELISA); type: binding; settings: qualitative
Experimental: as §1
Direct ELISA and competition ELISA. For direct ELISA, 6- (N-carboxymethylamino)caproate was coated on microtiter plates, the unbound sites were blocked by incubation with Assay Buffer (25 mM borate, pH 8.0, 150 mM NaCl, 0.01% EDTA and 1% BSA). The plate was washed six times and increasing concentrations of mAb in Assay Buffer were added. After this incubation, the plate was again washed and incubated with alkaline-phosphatase labeled goat anti-mouse antibodies (Cappel, Durham, N.C.) diluted 1:1000 in Assay Buffer. The unbound antibodies were removed by extensive washing and the bound antibodies were detected by addition of p-nitrophenylphosphate in recording the optical density at 410 nm.
as §3

[3] = target: monoclonal antibody 2G6; assay: Competition ELISA, inhibition of mAb 2G6 binding; set-up: species or system mouse
Experimental: as §1, §2, §3, §4

[4] = target: monoclonal antibody BH4; assay: Competition ELISA, inhibition of mAb BH4 binding; set-up: species or system mouse
Experimental: as §1, §2, §3, §4

[5] = tested on: Hb-AGE; settings: diabetic patients treated for 28 days; WO 93/13421; cited from earlier work
[6] = tested on: advanced glycosylation endproducts; settings: U.S. Pat. No. 4,758,583; cited from earlier work
[7] = Competitive ELISA, plates coated with BSA-AGE at 10 μg/ml

Concentration of Antigen for 50% Inhibition of mAb 4G9 [1, 7] [pmol/well]	recognition by monoclonal antibody 4G9 ([1]; qualitative, ELISA)	Concentration of Antigen for 50% Inhibition of mAb 2G6 [3, 7] [pmol/well]	recognition by monoclonal antibody 2G6 ([3]; qualitative, ELISA)	Concentration of Antigen for 50% Inhibition of mAb BH4 [4, 7] [pmol/well]	recognition by monoclonal antibody BH4 ([4]; qualitative, ELISA)	SMILES	recognition by antibodies which recognize advanced glycosylation endproducts [2]	levels of Hb-AGE at the end of the treatment period [5]	inhibition of formation of advanced glycosylation endproducts [6]
11	displayed recognition	21	displayed recognition	5.7	displayed recognition	O=C(O)CCCCCNCC(=O)O [ALT-927, disodium 6-(N-carboxymethylamino)caproate]	have been shown to recognize		
						N=C(N)NN [aminoguanidine]		significantly decreased levels of Hb-AGE	identified as an inhibitor

Source: patent publication US5869527A, “6-(N-carboxymethylamino)caproate, salts thereof and methods of use therefor” (Alteon Inc., priority 1996, dated 1999)
